The results in this text go back to article PMC5186412 (Future medicinal chemistry, 2015).

Numbered stars: 1 amine (or outer) side, 2 acyl side, 3 side chain; on linkers, the order of the positions; unused ones are H or OH. Bridge positions count the residues as written; N and C are the ends. Square brackets hold non-standard residues; d marks the D form. Peptide text beside a SMILES is read from it. * marks the point of attachment. dLeu(3R-OH) = CC(C)[C@@H](O[*:3])[C@@H](N[*:1])C(=O)[*:2]; Gln(3S,4R-Me2) = C[C@H]([C@H](N)C(=O)O)[C@@H](C)C(N)=O; dTyr(βR-OMe) = CO[C@H](c1ccc(O)cc1)[C@@H](N)C(=O)O; Pip(4S-Cl) = O=C(O)[C@@H]1C[C@@H](Cl)CCN1; X6 = CCC(C)/C=C(C)/C=C\C(O)C(C)(O)C(=O)*; Abu(3R-NH2) = C[C@@H](N)[C@H](N)C(=O)O; NMeT = CN[C@H](C(=O)O)[C@@H](C)O

The conditions of the first data set: PAMPA. A general note: The PAMPA barrier holds no transporters, so it reflects passive diffusion.
Regarding destruxin B, the “passive permeability (in words)” value is given as “moderate permeability”.
Still for that read-out and setting: next, `CC[C@@H](C)[C@@H]1NC(=O)CNC(=O)[C@@H](C)N(C)C(=O)[C@H](C(C)C)NC(=O)[C@H]([C@@H](C)O)N(C)C(=O)[C@H](C(C)C)NC(=O)[C@H]([C@@H](C)O)N(C)C(=O)[C@H](C(C)C)NC(=O)CNC(=O)[C@@H](Cc2ccccc2)N(C)C(=O)[C@H](C(C)C)NC(=O)[C@H](CO)NC(=O)[C@H](C(C)C)N(C)C(=O)[C@H](CO)N(C)C1=O` [verrucamide B]: “poor passive permeability”; tentoxin: “measurable permeability”.
Still for that read-out and setting: the entry for `CCC(C)/C=C(C)/C=C\C(O)C(C)(O)C(=O)NCC(=O)N[C@H](C(=O)N[C@H](C(=O)N[C@H](C(=O)N[C@H]1C(=O)N[C@H](COC)C(=O)NCC(=O)N[C@@H](C)C(=O)N(C)[C@@H]([C@@H](C)O)C(=O)N[C@H]([C@H](OC)c2ccc(O)cc2)C(=O)N2CC[C@H](Cl)C[C@H]2C(=O)O[C@@H]1C(C)C)[C@@H](C)[C@@H](C)C(N)=O)[C@@H](C)N)[C@@H](C)O` (stereo partly drawn) [mirabamide C] (X6-GT[Abu(3R-NH2)][Gln(3S,4R-Me2)][dLeu(3R-OH)][dS](Me)GA[NMeT][dTyr(βR-OMe)][Pip(4S-Cl)]; ester 5-C) is “poor passive permeability”; for destruxin A it is “moderate permeability”.

The same data set, now with this note: PAMPA, 16 h.
As for destruxin B, the logPe is given as −5.29.
Same read-out and setting: next, desmethyldestruxin B: −6.67; `CC(C)[C@H]1C(=O)O[C@H](C(C)C)C(=O)N(C)[C@@H](C(C)C)C(=O)O[C@H](C(C)C)C(=O)N(C)[C@@H](C(C)C)C(=O)O[C@H](C(C)C)C(=O)N1C` [Enniatin B]: −4.7; destruxin E2 chlorohydrin: −7.35.
`CC[C@H](C)[C@@H]1NC(=O)c2csc(n2)[C@@H](C)NC(=O)[C@H]2N=C(O[C@@H]2C)[C@H](C(C)C)NC(=O)c2csc(n2)[C@@H](Cc2ccccc2)NC(=O)[C@H]2N=C1O[C@@H]2C` [Patellamide C] registered a logPe of −4.7.
For `CC(C)[C@H]1C(=O)N(C)[C@@H](C)C(=O)NCCC[C@H](NC(=O)/C=C/C=C/C=O)C(=O)N1C` [sclerotiotide F], the logPe entry is listed as “below the PAMPA assay’s detection limit”.
